Measurements reported in patent publication US20260345728A1, “COMBINATION THERAPY WITH BRAF INHIBITORS FOR THE TREATMENT OF CANCER” (FUNDACIÓ PRIVADA INSTITUT D'INVESTIGACIÓ ONCOLÒGICA DE VALL …, priority 2023, published 2026).

Assays:
late-stage melanoma = conditions: cited from earlier work
melanoma SkMel37 cells = experiment: AlamarBlue cell viability with ZIP synergy scoring (SynergyFinder 3.0), SkMel37; assay type: cell-based, human; conditions: single agent; 5 days; FIG. 1
Protocol: A human melanoma cell line with mutations in BRAF (BRAF^V600E) (SkMel37) was used. Cells were plated in 96 well plates and treated on the following day with increasing concentrations of dabrafenib and Omomyc, alone or in combination. After 5 days of treatment, media was removed and AlamarBlue™ Cell Viability Reagent was added to each well, incubated for 3 hours until metabolized, and fluorescence was read with a microplate reader using an excitation between 530-560 and an emission at 590 nm.
Synergy was evaluated using SynergyFinder 3.0 web application derived from lanevsky A et al. Nucleic Acids Res. 2022; 50(W1):W739-W743.
Synergy scores can be interpreted as the average excess response due to drug interactions. Synergy scores close to 0 give limited confidence in synergy or antagonism. So, when the synergy scores are: less than −10, the interaction between two drugs is likely to be antagonistic. From −10 to 10, the interaction between two drugs is likely to be additive. Greater than 10, the interaction between two drugs is likely to be synergistic.

[1] = tested on: wild type and mutant BRAF metastatic melanoma; conditions: cited from earlier work
mutant BRAF = conditions: cited from earlier work

Row | SMILES | tumors that develop resistance to the treatment (late-stage melanoma) [%] | reduction of viability of the cells (melanoma SkMel37 cells) | off-target side-effects ([1]; human, in vivo) | clinical activity ([1]; monotherapy or in combination with dacarbazine) | selectivity for mutant BRAF (mutant BRAF)
1 | CC(C)(C)c1nc(-c2cccc(NS(=O)(=O)c3c(F)cccc3F)c2F)c(-c2ccnc(N)n2)s1 [dabrafenib] | 20 | significantly reduces the viability of the cells |  |  | 
2 | CNC(=O)c1cc(Oc2ccc(NC(=O)Nc3ccc(Cl)c(C(F)(F)F)c3)cc2)ccn1 [sorafenib] |  |  | intolerable off-target side-effects | failed to demonstrate any activity | unable to selectively target mutant BRAF
3 | CCCS(=O)(=O)Nc1ccc(F)c(C(=O)c2c[nH]c3ncc(-c4ccc(Cl)cc4)cc23)c1F [vemurafenib] | 20 |  |  |  | 
